# Experimental data: patent USRE37770E1, “Treatment of skin conditions by use of PPARα activators” (The Regents of the University of California, priority 1997, dated 2002)
# What was measured:
# transglutaminase mRNA [1] = experiment: Transglutaminase mRNA in keratinocytes by Northern Blot; format: cell-based, Human
# involucrin mRNA [2] = experiment: Involucrin mRNA in keratinocytes by Northern Blot; format: cell-based, Human
# transglutaminase mRNA [3] = experiment: Transglutaminase mRNA in keratinocytes by Northern Blot; format: cell-based, Human; remark: listed apart in the source
# Method: (§1) Human keratinocyte cells were incubated in culture containing calcium at a concentration of 0.03 mM Ca^++ (a level that is too low to induce differentiation). Also included in the culture medium were clofibrate at 400 μM or ETYA at 10 μM and 20 μM, while separate cell cultures were maintained as controls with neither clofibrate nor ETYA. The production of mRNA for both involucrin and transglutaminase was measured at intervals over a 48-hour time period (0, 6, 12, 24, and 48 hours) by Northern Blot analysis. In each case, the lighter bars represent the control cells and the darker bars the cells incubated in the clofibrate-containing medium. The degree of mRNA generated is expressed as a percent of the control at zero hours.
# (§2) Human epidermis was isolated from newborn foreskins and keratinocytes were plated in serum-free keratinocyte growth medium (“KGM”; Clonetics, San Diego, Calif. USA), using conventional techniques. Cells were treated with either the test compounds in vehicle or vehicle alone (<0.1% ethanol) for 24 or 48 hours. The test compounds were obtained from Sigma Chemical Co. (St. Louis. Mo. USA) and were stored as 15 mM stock solutions at −20° C. Mevalonate was solubilized in sterile water.
# (§3) Total RNA was isolated by using TRIZOL (Sigma Chemical Co.), following the manufacturer's protocol. Ethanol-precipitate RNA pellets were suspended in sterile, diethylpyrocarbonate (DEPC)-treated water, and RNA was quantified by absorbance at 260 nm using the 260/280 nm ratio as an index of purity. RNA (15 μg per sample) was size fractionated through a 1% agarose gel containing 2.2 M formaldehyde. RNA integrity was visualized following acridine orange staining of the gel following electrophoresis. The RNA was transfered to a nylon membrane that was subsequently baked at 80° C. for 2 hours. Blots were hybridized with the appropriate ^32p-labeled probe overnight at 65° C. Washes were then performed in a solution containing 0.1% SSC and 0.1% sodium dedecyl sulfate (SDS) for 20 minutes at room temperature, followed by a 20-minute wash at 65° C. Autoradiography was performed at −70° C. Blots were probed with β-actin to confirm equal loading. Appropriate bands were quantified by densitometry.
# (§4) Northern blot analyses were performed on keratinocytes maintained in low calcium (0.03 mM) and incubated for 24 hours in the presence of vehicle alone (<0.1% ethanol) or vehicle containing 25-hydroxycholesterol (10 μM), 22(R)-hydroxycholesterol (10 μM) cholesterol (10 μM), or mevalonate (500 μM) (individually). The mRNA levels of involucrin (“INV”) and transglutaminase (“TG'ase”) are shown in the bar graph of FIG. 14a, the INV indicated by clear bars and the TG'ase by shaded bars, both with error limits shown.
# [4] = test system: full-thickness flank skin from the fetal rats; experiment: Transepidermal water loss (TEWL) of fetal rat skin explants in organ culture (barrier function); format: cell-based, Sprague-Dawley rats
# Method: Timed pregnant Sprague-Dawley rats (plug date=day 0) were obtained from Simonsen (Gilroy, Calif., USA) and fetuses were delivered prematurely on day 17. Transepidermal water loss (TEWL) was measured in excised full-thickness flank skin from the fetal rats after various times in culture. The skin explants were placed dermis-side down onto collagen membrane inserts (3μ pore size) in medium M-199 (serum-free), and submerged, and the lateral edges and dermal surface were sealed with petrolatum, such that water loss occurred only through the epidermal surface. Explant samples were weighed hourly, at ambient temperature (24±3° C.) and humidity (40±5%), over 6 hours using a Cahn balance (sensitivity 0.001 mg). TEWL levels are reported as milligrams of water lost per square millimeter of epidermal surface per hour. Fatty acids and clofibrate (p-chlorophenoxyisobutyric acid) were added to the medium bound to 0.5% (weight/volume) bovine serum albumin (BSA). Isoprenoids and oxysterols were added in ethanol (≦0.1%) and juvenile hormone III was added as a dimethylsulfoxide (DMSO) solution (≦0.1%). Control explants were incubated in the presence of the appropriate vehicle (≦0.1% DMSO or ethanol, and/or ≦0.5% BSA). Skin explants from gestational day 17 rats were incubated in the presence of either various activators or vehicle, and transepidermal water loss was measured after two days. The activators and the concentrations at which they were used were as follows: […]
# involucrin protein = experiment: Involucrin protein level in keratinocytes by Western Blot; format: cell-based, Human
# Method: Measurements of the level of the involucrin protein itself were performed in the culture medium by Western Blot. Various incubations were performed, in media containing clofibrate at concentrations ranging from 0 (vehicle only) to 400 μM and calcium ion at both 0.03 mM and 1.2 mM. The results are shown in FIG. 9a for tests with calcium ion at 0.03 mM, and in FIG. 9b for tests with calcium ion at 1.2 mM. In these figures, the protein contents are expressed as percents of the respective measurements taken from media incubated for the same period of time but in the absence of clofibrate.
# The procedures of Example 8 were followed, and measurements were taken on the involucrin protein levels from cells incubated at various concentrations of farnesol and juvenile hormone III ranging from 0 (vehicle only) to 15 μM, in media containing 0.03 mM and 1.2 mM calcium ion, for 24 hours. The results are shown in FIG. 10 for farnesol and FIG. 11 for juvenile hormone III, in 0.03 mM Ca^++.
# Protein concentration was assessed by protein electrophoresis and Western blotting. Cells were lysed is 2% SDS and the lysate sonicated. Protein determinations were made by use of a Bicinchoninic add protein assay (Pierce Chemical Company, Rockford, Ill. USA). Following protein determination, equal amounts at protein (50 μg) were separated by electrophoresis an 7.5% polyacrylamide gels and electroblotted onto polyvinylidene […] membranes (0.2-μ, obtained from Bio-Rad Laboratories Hercules, Calif., USA). Involucrin protein was detected by incubation over-night at 4° C. C. with a polyclonal rabbit anti-human involucrin antibody (1:1000 dilution). The involucrin-specific bands on the autoradiograms were quantitated by densitometry by densitometry. Transglutaminase protein expression was measured in a similar mmaner, using stacking, sample and running buffers containing 4 M urea, and the gels following electrophoresis were washed in 4 M urea, 25 mM TRIS-HCl, pH 7.4, 7.5 mM NaCl, 0.1 mM dithiothreitol (DTT), and 2 mM ethylenediamine tetraacetic acid for 90 minutes prior to electoblotting, allowing the transglutaminase to be detected by antibody. Specific bands on the autoradiograms were quantified by densitometry.
# involucrin mRNA [5] = experiment: Involucrin mRNA in keratinocytes by Northern Blot; format: cell-based, Human; remark: listed apart in the source
# Method: as §1, §2, §3, §4
# [6] = test system: Normal human keratinocytes; experiment: Cornified envelope formation (35S incorporation) in keratinocytes; format: cell-based; conditions: 48 hours; for Cornified Envelope Formation (% of Control): control = 0.03 mM Ca++ vehicle, mean ± SEM; for increase in cornified envelope (CE) formation: 10 μM
# [7] = 1.2 mM Ca++, 400 μM, all time points relative to the controls
# [8] = 24 hours, 0 to 400 μM, in either 0.03 mM or 1.2 mM Ca++
# [9] = 10 μM in the presence of mevalonate (10 μM), 24 hours
# [10] = 10 μM alone, 24 hours (Example 17)
# [11] = low calcium (0.03 mM), 24 hours, 10 μM
structure (smiles),measurement,setting,value
"CCOC(=O)C(C)(C)Oc1ccc(Cl)cc1 [clofibrate, 2-(4-chlorophenoxy)-2-methylpropanoic acid ethyl ester]",transglutaminase mRNA level,transglutaminase mRNA [1]; [7],increased mRNA levels
same,involucrin mRNA level,involucrin mRNA [2]; [7],increased mRNA levels
same,transglutaminase mRNA level,"transglutaminase mRNA [3]; 0.03 mM Ca++, 400 μM, 0-48 hours, increase beginning at twelve hours",significantly increased levels
same,dose dependency of transglutaminase mRNA level,transglutaminase mRNA [3]; [8],increase with increasing dosages
same,EC50,"[4]; Rattus norvegicus, dose response, FIGS. 4a-4c, read-out: concentration of half-maximal effect on barrier development (TEWL)",~250 µM
same,concentration of maximal effect on barrier development (TEWL),"[4]; dose response, FIGS. 4a-4c",approximately 500 μM
same,involucrin protein content,"involucrin protein; 0 to 400 μM, calcium ion at both 0.03 mM and 1.2 mM",substantial increases in the protein content
same,involucrin mRNA level,"involucrin mRNA [5]; 0.03 mM Ca++, 400 μM, 0-48 hours, increase beginning at six hours",significantly increased levels
same,dose dependency of involucrin mRNA level,involucrin mRNA [5]; [8],increase with increasing dosages
same,Cornified Envelope Formation (% of Control),"[6]; Calcium 0.03 mM, Clofibrate 50 μM",121.4% ± 15.7 % of Control
same,Cornified Envelope Formation (% of Control),"[6]; Calcium 0.03 mM, Clofibrate 200 μM",321.3% ± 30.4 % of Control
same,Cornified Envelope Formation (% of Control),"[6]; Calcium 0.03 mM, Clofibrate 400 μM",386.8% ± 28.7 % of Control
same,Cornified Envelope Formation (% of Control),"[6]; Calcium 1.2 mM, Clofibrate 50 μM",458.9% ± 39.8 % of Control
same,Cornified Envelope Formation (% of Control),"[6]; Calcium 1.2 mM, Clofibrate 200 μM",529.3% ± 17.4 % of Control
same,Cornified Envelope Formation (% of Control),"[6]; Calcium 1.2 mM, Clofibrate 400 μM",581.9% ± 28.7 % of Control
C[C@H](CCCC(C)(C)O)[C@H]1CC[C@H]2[C@@H]3CC=C4C[C@@H](O)CC[C@]4(C)[C@H]3CC[C@]12C [25-hydroxycholesterol],TG'ase mRNA level,transglutaminase mRNA [1]; [9],two-fold increase
same,INV mRNA level,involucrin mRNA [2]; [9],two-fold increase
same,TG'ase mRNA level,transglutaminase mRNA [3]; [10],two-fold increase
same,transglutaminase (TG'ase) mRNA level compared to the vehicle alone,transglutaminase mRNA [3]; [11],approximate twofold increase
same,effect on TEWL / barrier function,"[4]; 50 μM, two days","neither mevalonate at 200 μM, 25-hydroxy cholesterol at 50 μM), squalene at 50 μM, geranylgeraniol at 50 μM, cis-farnesol at 50 μM, nor nerolidol at 100 μM significantly affected barrier function"
same,increase in INV protein,"involucrin protein; high calcium (1.2 mM), 15 μM",3.2 fold
same,INV protein level relative to the control,"involucrin protein; low calcium (0.03 mM), 24 hours",approximately 1.7 fold
same,INV mRNA level,involucrin mRNA [5]; [10],two-fold increase
same,involucrin (INV) mRNA level compared to the vehicle alone,involucrin mRNA [5]; [11],approximate twofold increase
same,increase in cornified envelope (CE) formation,[6]; high calcium (1.2 mM),1.75 fold
same,increase in cornified envelope (CE) formation,[6]; low calcium (0.03 mM),1.6 fold
